These results are taken from patent publication US6548543B1, “Remedies or preventives containing cyclopentenone compounds as the active ingredient” (Takara Shuzo Co., Ltd., priority 1998, dated 2003).

This assay concerns adhesion between vascular endothelial cells and HL-60 cells. Briefly: Adhesion of HL-60 cells to TNF-α-stimulated vascular endothelial cells. It counts as cell-based, Human. The note with it: for Adhesion rate: TNF-α-stimulated endothelial cells. The procedure:
Human vascular endothelial cells (sold by Sanko Junyaku) suspended in RPMI-1640 medium (Gibco) containing 10% FCS (HyClone) at a concentration of 1×10^5 cells/ml. 100 μl/well of the suspension was seeded into a 96-well microtiter plate.
100 U/ml of human recombinant TNF-α (Promega) was added to monolayer of vascular endothelial cells after incubation at 37° C. for 2 days in a 5% CO2 incubator. The plate was incubated 37° C. for 6 hours in a 5% CO2 incubator to prepare vascular endothelial cells stimulated with TNF-α.
On the other hand, cyclopentenone, GM or dipropionylcyclopentenone at a varying concentration was added to HL-60 cells suspended in RPMI-1640 medium containing 10% FCS at a concentration of 1×10^6 cells/ml. The cells were cultured at 37° C. for 3 hours in a 5% CO2 incubator. After cultivation, 5 μM of 5(-and-6)-carboxyfluorescein diacetate, succinimide ester (Molecular Probe) as a fluorescent agent was added thereto and reacted at 37° C. for 10 minutes. The cells were washed twice with RPMI-1640 medium and suspended in RPMI-1640 medium containing 10% FCS to prepare a suspension of fluorescence-labeled HL-60 cells at a concentration of 1×10^6 cells/ml.
100 μl/well of the fluorescence-labeled HL-60 cells were overlaid onto the vascular endothelial cells stimulated with TNF-α. Cyclopentenone, GM or dipropionylcyclopentenone at a varying concentration was added thereto. The plate was incubated at 37° C. for 20 minutes in a 5% CO2 incubator for adhesion reaction between vascular endothelial cells and HL-60 cells.
After the adhesion reaction, the plate was washed to remove non-adhesive cells. 1% Triton X (Nacalai Tesque) was added thereto to destroy adhesive cells. The fluorescence intensity was measured using filters for 485/22 nm (excitation) and 530/25 nm (emission).
The adhesion rate which represents the ratio of cells adhered to vascular endothelial cells was determined defining the fluorescence intensity for 1×10^5 fluorescence-labeled cells as 100%.

The structures appear in SMILES notation.

For the compound `CCC(=O)OC1C=CC(=O)C1OC(=O)CC` (centres unmarked), the Adhesion rate (0.1 μM) stood at 49.2%, the Adhesion rate (1 μM) came out at 35.1%, the Adhesion rate (10 μM) was found to be 15.3% and the Adhesion rate (100 μM) is recorded as 15.5%. The “Suppression of TNF-α-induced increase in adhesion rate (statement)” value (10^−7 to 10^−4 M, dose-dependent) is “suppressed”.
